The values below come from ChEMBL document CHEMBL1149374, “Synthesis and biological evaluation of gem-diamine 1-N-iminosugars related to L-iduronic acid as inhibitors of heparan sulfate 2-O-sulfotransferase” (Bioorg Med Chem Lett, 2006).

The target in this experiment is T1, Heparan sulfate 2-O-sulfotransferase 1 (Cricetulus longicaudatus) (UniProt O08889).
T1 sequence (whole entry): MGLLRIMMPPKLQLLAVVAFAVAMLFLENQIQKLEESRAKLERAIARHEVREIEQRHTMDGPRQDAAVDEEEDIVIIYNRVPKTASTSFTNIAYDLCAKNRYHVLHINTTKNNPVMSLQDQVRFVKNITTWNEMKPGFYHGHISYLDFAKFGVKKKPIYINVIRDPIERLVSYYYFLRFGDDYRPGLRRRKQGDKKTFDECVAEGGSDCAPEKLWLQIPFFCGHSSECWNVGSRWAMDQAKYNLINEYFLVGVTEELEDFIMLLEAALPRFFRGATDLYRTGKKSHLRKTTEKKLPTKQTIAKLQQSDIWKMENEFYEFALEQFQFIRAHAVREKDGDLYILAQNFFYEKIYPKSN
The experiment is described as follows: Inhibition of sulfate transfer by HS 2-O-ST from CHO cells. The settings on record: concentration not given here. Type of experiment: functional, cell-based.

One may read the inhibition as the relative decrease from the control value, in per cent. Turning to `CCC(CC)C(=O)N1C[C@@H](C(=O)O)[C@H](N=C(N)N)[C@H](O)[C@H]1NC(C)=O`, the inhibition was found to be 84%. Then `CC(=O)N[C@H]1NC[C@@H](C(=O)O)[C@H](N=C(N)N)[C@@H]1O`, with 76%.
